The record followed here is ChEMBL document CHEMBL5036317, “Identification of Unique Quinazolone Thiazoles as Novel Structural Scaffolds for Potential Gram-Negative Bacterial Conquerors” (J Med Chem, 2021).

Data set [1] in a line: Haemolytic activity in human erythrocytes incubated for 2 hrs. It is filed as ADME, cell-based, Erythrocyte.
Data set [2] relates to Escherichia coli. Kind of data set: Antibacterial activity against Escherichia coli assessed as inhibition of bacterial growth measured after 24 hrs by two-fold serial dilution method. The format is functional.
Data set [3] concerns Staphylococcus aureus. In words: Antibacterial activity against Staphylococcus aureus assessed as inhibition of bacterial growth measured after 24 hrs by two-fold serial dilution method. The format is functional.
For data set [4], the system named is Pseudomonas aeruginosa. Kind of data set: Antibacterial activity against Pseudomonas aeruginosa ATCC 27853 assessed as inhibition of bacterial growth measured after 24 hrs by two-fold serial dilution method. It is filed as functional.
The subject of the next data set is Acinetobacter baumannii. Kind of data set: Antibacterial activity against Acinetobacter baumanii assessed as inhibition of bacterial growth measured after 24 hrs by two-fold serial dilution method. It is filed as functional.
The subject of data set [5] is Staphylococcus aureus. Kind of data set: Antibacterial activity against methicillin-resistant Staphylococcus aureus assessed as inhibition of bacterial growth measured after 24 hrs by two-fold serial dilution method. The format is functional.
Another data set deals with Klebsiella pneumoniae. In words: Antibacterial activity against Klebsiella pneumoniae assessed as inhibition of bacterial growth measured after 24 hrs by two-fold serial dilution method. It is filed as functional.
Data set [6] has as its system Staphylococcus aureus. Kind of data set: Antibacterial activity against Staphylococcus aureus ATCC 25923 assessed as inhibition of bacterial growth measured after 24 hrs by two-fold serial dilution method. It is filed as functional.
Data set [7] has as its system Pseudomonas aeruginosa. In words: Antibacterial activity against Pseudomonas aeruginosa assessed as inhibition of bacterial growth measured after 24 hrs by two-fold serial dilution method. It is filed as functional.
The next data set deals with Enterococcus faecalis. Kind of data set: Antibacterial activity against Enterococcus faecalis assessed as inhibition of bacterial growth measured after 24 hrs by two-fold serial dilution method. It is filed as functional.
Data set [8] has as its system Escherichia coli. In words: Antibacterial activity against Escherichia coli ATCC 25922 assessed as inhibition of bacterial growth measured after 24 hrs by two-fold serial dilution method. The format is functional.
The subject of data set [9] is Staphylococcus aureus. In words: Antibacterial activity against Staphylococcus aureus ATCC 29213 assessed as inhibition of bacterial growth measured after 24 hrs by two-fold serial dilution method. The format is functional.

Converted amounts (≈) assume the structure as drawn.

Turning to `O=C(/C(=C/c1ccc(F)cc1F)n1cnc2cc(Cl)ccc2c1=O)c1nccs1`, in data set [1], the HC50 at 2 h worked out at 203 µg/mL. The MIC in the data set on Escherichia coli [2] turned out to be 8 µg/mL (≈ 18.6 µM); in the data set on Staphylococcus aureus [3] it was 8 µg/mL (≈ 18.6 µM); in the data set with Pseudomonas aeruginosa [4] it was 4 µg/mL (≈ 9.31 µM); in the data set with Acinetobacter baumannii, 2 µg/mL (≈ 4.65 µM); with Staphylococcus aureus [5] it was 8 µg/mL (≈ 18.6 µM); in the data set on Klebsiella pneumoniae it was 8 µg/mL (≈ 18.6 µM). The MIC was found to be 2 µg/mL (≈ 4.65 µM) in the data set with Staphylococcus aureus [6]; 8 µg/mL (≈ 18.6 µM) in the data set on Pseudomonas aeruginosa [7]; 8 µg/mL (≈ 18.6 µM) in the data set with Enterococcus faecalis; 2 µg/mL (≈ 4.65 µM) in the data set on Escherichia coli [8]; 8 µg/mL (≈ 18.6 µM) in the data set with Staphylococcus aureus [9].

`O=C(/C(=C/c1ccco1)n1cnc2cc(Cl)ccc2c1=O)c1nccs1` gave an HC50 at 2 h in data set [1] greater than 250 µg/mL. The MIC in the data set with Escherichia coli [2] is 128 µg/mL (≈ 333 µM); in the data set with Staphylococcus aureus [3] it was 64 µg/mL (≈ 167 µM); in the data set on Pseudomonas aeruginosa [4] it was 32 µg/mL (≈ 83.4 µM); in the data set on Acinetobacter baumannii it was 16 µg/mL (≈ 41.7 µM); with Staphylococcus aureus [5], 32 µg/mL (≈ 83.4 µM); in the data set with Klebsiella pneumoniae, 64 µg/mL (≈ 167 µM). Besides, the MIC with Staphylococcus aureus [6] worked out at 8 µg/mL (≈ 20.8 µM); with Pseudomonas aeruginosa [7], 64 µg/mL (≈ 167 µM); in the data set with Enterococcus faecalis, 8 µg/mL (≈ 20.8 µM); with Escherichia coli [8] it was 16 µg/mL (≈ 41.7 µM); in the data set with Staphylococcus aureus [9], 8 µg/mL (≈ 20.8 µM).

Turning to `O=C(/C(=C/c1ccc(Cl)cc1)n1cnc2cc(Cl)ccc2c1=O)c1nccs1`, in data set [1], the HC50 at 2 h is greater than 250 µg/mL. The MIC in the data set with Escherichia coli [2] was found to be 16 µg/mL (≈ 37.4 µM); with Staphylococcus aureus [3], 16 µg/mL (≈ 37.4 µM); with Pseudomonas aeruginosa [4] it was 1 µg/mL (≈ 2.33 µM); in the data set on Acinetobacter baumannii, 256 µg/mL (≈ 598 µM); in the data set with Staphylococcus aureus [5] it was 8 µg/mL (≈ 18.7 µM); in the data set on Klebsiella pneumoniae, 64 µg/mL (≈ 149 µM). The MIC in the data set on Staphylococcus aureus [6] worked out at 4 µg/mL (≈ 9.34 µM); in the data set on Pseudomonas aeruginosa [7], 2 µg/mL (≈ 4.67 µM); with Enterococcus faecalis it was 4 µg/mL (≈ 9.34 µM); in the data set with Escherichia coli [8], 2 µg/mL (≈ 4.67 µM); in the data set on Staphylococcus aureus [9], 4 µg/mL (≈ 9.34 µM).

Regarding `CN(C)/C=C(/C(=O)c1nccs1)n1cnc2cc(Cl)ccc2c1=O`, in [1], the HC50 at 2 h amounted to 204 µg/mL. Also, the MIC with Escherichia coli [2] turned out to be 512 µg/mL (≈ 1420 µM); with Staphylococcus aureus [3], 512 µg/mL (≈ 1420 µM); in the data set on Pseudomonas aeruginosa [4], 16 µg/mL (≈ 44.3 µM); in the data set on Acinetobacter baumannii, 128 µg/mL (≈ 355 µM); in the data set with Staphylococcus aureus [5] it was 512 µg/mL (≈ 1420 µM); with Klebsiella pneumoniae, 128 µg/mL (≈ 355 µM). The MIC with Staphylococcus aureus [6] was determined as 256 µg/mL (≈ 709 µM); in the data set on Pseudomonas aeruginosa [7] it was 16 µg/mL (≈ 44.3 µM); in the data set with Enterococcus faecalis it was 128 µg/mL (≈ 355 µM); in the data set on Escherichia coli [8], 16 µg/mL (≈ 44.3 µM); in the data set with Staphylococcus aureus [9], 512 µg/mL (≈ 1420 µM).

Turning to `CCn1cc(/C=C(/C(=O)c2nccs2)n2cnc3cc(Cl)ccc3c2=O)c2ccccc21`, in [1], the concentration for 50% haemolysis (HC50) at 2 h was greater than 250 µg/mL. In addition, the MIC with Escherichia coli [2] was found to be 512 µg/mL (≈ 1110 µM); with Staphylococcus aureus [3] it was 512 µg/mL (≈ 1110 µM); in the data set with Pseudomonas aeruginosa [4], 32 µg/mL (≈ 69.4 µM); in the data set with Acinetobacter baumannii it was 128 µg/mL (≈ 278 µM); in the data set with Staphylococcus aureus [5], 512 µg/mL (≈ 1110 µM); in the data set with Klebsiella pneumoniae it was 512 µg/mL (≈ 1110 µM). In addition, the MIC in the data set on Staphylococcus aureus [6] was 512 µg/mL (≈ 1110 µM); in the data set with Pseudomonas aeruginosa [7], 128 µg/mL (≈ 278 µM); with Enterococcus faecalis, 512 µg/mL (≈ 1110 µM); in the data set on Escherichia coli [8], 512 µg/mL (≈ 1110 µM); in the data set on Staphylococcus aureus [9] it was 1 µg/mL (≈ 2.17 µM).

Compound `O=C(/C(=C/c1cccc(Cl)c1)n1cnc2cc(Cl)ccc2c1=O)c1nccs1` returned an HC50 at 2 h in [1] greater than 250 µg/mL. Besides, the MIC in the data set on Escherichia coli [2] amounted to 4 µg/mL (≈ 9.34 µM); in the data set with Staphylococcus aureus [3], 32 µg/mL (≈ 74.7 µM); with Pseudomonas aeruginosa [4] it was 4 µg/mL (≈ 9.34 µM); in the data set on Acinetobacter baumannii, 1 µg/mL (≈ 2.33 µM); in the data set with Staphylococcus aureus [5], 8 µg/mL (≈ 18.7 µM); in the data set on Klebsiella pneumoniae it was 128 µg/mL (≈ 299 µM). For the same compound, the MIC with Staphylococcus aureus [6] was 8 µg/mL (≈ 18.7 µM); with Pseudomonas aeruginosa [7] it was 32 µg/mL (≈ 74.7 µM); in the data set with Enterococcus faecalis, 128 µg/mL (≈ 299 µM); with Escherichia coli [8] it was 4 µg/mL (≈ 9.34 µM); in the data set with Staphylococcus aureus [9], 8 µg/mL (≈ 18.7 µM).

Regarding `Cc1ccc2c(/C=C(/C(=O)c3nccs3)n3cnc4cc(Cl)ccc4c3=O)c[nH]c2c1`, the HC50 at 2 h in data set [1] is greater than 250 µg/mL. The MIC in the data set on Escherichia coli [2] came to 128 µg/mL (≈ 286 µM); in the data set with Staphylococcus aureus [3], 512 µg/mL (≈ 1150 µM); with Pseudomonas aeruginosa [4] it was 8 µg/mL (≈ 17.9 µM); in the data set with Acinetobacter baumannii, 8 µg/mL (≈ 17.9 µM); with Staphylococcus aureus [5], 32 µg/mL (≈ 71.6 µM); in the data set on Klebsiella pneumoniae, 64 µg/mL (≈ 143 µM). Further, the MIC with Staphylococcus aureus [6] worked out at 32 µg/mL (≈ 71.6 µM); in the data set with Pseudomonas aeruginosa [7], 64 µg/mL (≈ 143 µM); in the data set on Enterococcus faecalis, 64 µg/mL (≈ 143 µM); with Escherichia coli [8], 16 µg/mL (≈ 35.8 µM); in the data set on Staphylococcus aureus [9], 32 µg/mL (≈ 71.6 µM).
